The target of test [1] is human GRK5 (Homo sapiens (Human), UniProt P34947). Description: GRK5 radiometric inhibition assay (tubulin phosphorylation, [γ-32P]-ATP). The class given is biochemical. The following applies: 50 nM GRK, 500 nM tubulin, 5 μM ATP. The method, then: (§1) Reactions were quenched at 8 min by addition of 5 μL of 4×SDS gel loading dye to the 10 μL reactions. […] Gels were dried, exposed to a storage phosphor screen overnight, and scanned using a Personal Molecular Imager (Bio-Rad). […] Outliers were eliminated automatically at a 1% Q value. Experiments were performed at least three times.
(§2) Standard control compounds are run during each assay to assess consistency across time, experimenters, and subtle changes in assay conditions that are sometimes required to keep compounds soluble and dispersed (e.g., through addition of DDM or 3% DMSO).

The target of test [2] is bovine GRK2 (Bos taurus (Bovine), UniProt P21146). Description: GRK2 radiometric inhibition assay (tubulin phosphorylation, [γ-32P]-ATP). The settings on record: 50 nM GRK, 500 nM tubulin, 5 μM ATP. It counts as biochemical. As for the experimental part:
as §1, §2

Data on 40 molecules can be found in patent US20250388567A1, “SELECTIVE G PROTEIN-COUPLED RECEPTOR KINASE 5 INHIBITORS, COMPOSITIONS, AND METHODS OF USE” (Purdue Research Foundation, priority 2022, published 2025).

Each structure is given as a SMILES string.

What is called IC50 is the midpoint of a concentration-inhibition curve. Lower therefore signals greater potency in that assay.

human GRK5, sequence (P34947 whole entry): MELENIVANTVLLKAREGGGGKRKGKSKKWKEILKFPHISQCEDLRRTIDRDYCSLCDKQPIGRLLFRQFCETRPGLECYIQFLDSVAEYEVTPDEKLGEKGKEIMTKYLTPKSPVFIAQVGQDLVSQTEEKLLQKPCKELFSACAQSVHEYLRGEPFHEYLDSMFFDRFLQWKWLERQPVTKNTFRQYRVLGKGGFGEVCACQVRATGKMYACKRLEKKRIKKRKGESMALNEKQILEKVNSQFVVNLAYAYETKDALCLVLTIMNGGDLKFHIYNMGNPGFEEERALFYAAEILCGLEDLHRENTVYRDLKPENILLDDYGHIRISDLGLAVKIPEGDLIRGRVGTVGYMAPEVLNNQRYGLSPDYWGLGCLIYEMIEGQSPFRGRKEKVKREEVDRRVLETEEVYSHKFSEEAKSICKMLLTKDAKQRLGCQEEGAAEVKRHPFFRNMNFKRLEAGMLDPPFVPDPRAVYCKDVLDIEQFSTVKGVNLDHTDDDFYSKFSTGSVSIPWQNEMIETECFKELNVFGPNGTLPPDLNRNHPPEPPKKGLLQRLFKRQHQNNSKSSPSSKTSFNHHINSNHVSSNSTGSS
bovine GRK2, sequence (P21146 whole entry): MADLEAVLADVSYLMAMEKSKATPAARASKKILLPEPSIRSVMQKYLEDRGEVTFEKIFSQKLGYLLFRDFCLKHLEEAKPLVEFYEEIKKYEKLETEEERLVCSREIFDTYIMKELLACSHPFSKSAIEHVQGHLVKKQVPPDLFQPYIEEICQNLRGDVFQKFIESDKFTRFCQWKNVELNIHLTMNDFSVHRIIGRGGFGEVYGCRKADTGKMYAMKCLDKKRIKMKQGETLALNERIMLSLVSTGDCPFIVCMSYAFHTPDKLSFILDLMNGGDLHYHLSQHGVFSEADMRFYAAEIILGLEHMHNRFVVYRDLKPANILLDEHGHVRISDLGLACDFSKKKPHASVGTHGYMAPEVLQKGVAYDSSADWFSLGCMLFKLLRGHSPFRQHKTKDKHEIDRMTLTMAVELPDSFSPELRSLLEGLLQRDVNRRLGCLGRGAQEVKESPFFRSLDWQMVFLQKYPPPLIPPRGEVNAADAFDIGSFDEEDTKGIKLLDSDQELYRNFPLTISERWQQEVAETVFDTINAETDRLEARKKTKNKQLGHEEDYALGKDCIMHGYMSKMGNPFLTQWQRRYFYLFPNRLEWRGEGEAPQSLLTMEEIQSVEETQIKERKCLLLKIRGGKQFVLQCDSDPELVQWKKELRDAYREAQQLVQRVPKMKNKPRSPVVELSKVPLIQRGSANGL

Regarding `Cc1[nH]c(/C=C2\C(=O)Nc3ccc(C(=O)N[C@H](C)c4ccc(F)cc4)cc32)c(C)c1C(=O)NCC1CCCO1` (mixture of isomers) [Compound 35], the IC50 in test [1] is 0.001 to 0.1 µM; in test [2], over 10 µM.

On to `Cc1[nH]c(/C=C2\C(=O)Nc3ccc(C(=O)N[C@H](C)c4ccccc4)cc32)c(C)c1C(=O)NC1CCOC1` (mixture of isomers) [Compound 39], for which the IC50 was 0.001 to 0.1 µM in test [1] and 1 to 10 µM in test [2].

For `Cc1[nH]c(/C=C2\C(=O)Nc3ccc(C(=O)N[C@H](C)c4ccccc4)cc32)c(C)c1C(=O)NCC1CCOC1` (mixture of isomers) [Compound 40], the results for the IC50 in test [1] and in test [2] were 0.001 to 0.1 µM and 1 to 10 µM, respectively.

Consider `Cc1[nH]c(/C=C2\C(=O)Nc3ccc(C(=O)N[C@H](C)c4ccc(F)cc4)cc32)c(C)c1NC(=O)C(O)c1ccccc1` (stereo partly drawn) [Compound 1], for which, in test [2], the IC50 is over 10 µM.

On to `COc1cccc2[nH]c(C(O)C(=O)Nc3c(C)[nH]c(/C=C4\C(=O)Nc5ccc(C(=O)N[C@H](C)c6ccc(F)cc6)cc54)c3C)cc12` (stereo partly drawn) [Compound 4], for which the values for the IC50 in test [1] and in test [2] were 0.101 to 0.999 µM and over 10 µM, respectively.

For the molecule `Cc1[nH]c(/C=C2\C(=O)Nc3ccc(C(=O)N[C@H](C)c4ccccc4)cc32)c(C)c1C(=O)N[C@@H]1c2ccccc2C[C@@H]1O` [Compound 5], the IC50 in test [1] was 0.101 to 0.999 µM; in test [2], over 10 µM.

On to `Cc1[nH]c(/C=C2\C(=O)Nc3ccc(C(=O)N[C@H](C)c4ccccc4)cc32)c(C)c1C(=O)N[C@@H]1c2ccccc2C[C@H]1O` [Compound 6], for which the IC50 in test [1] is 0.101 to 0.999 µM; in test [2], over 10 µM.

Turning to `Cc1[nH]c(/C=C2\C(=O)Nc3ccc(C(=O)N[C@H](C)c4ccccc4)cc32)c(C)c1C(=O)N[C@H]1c2ccccc2C[C@@H]1O` [Compound 7], the results for the IC50 in test [1] and in test [2] were 0.101 to 0.999 µM and over 10 µM, respectively.

Consider `Cc1[nH]c(/C=C2\C(=O)Nc3ccc(C(=O)N[C@H](C)c4ccccc4)cc32)c(C)c1C(=O)N[C@H]1c2ccccc2C[C@H]1O` [Compound 8], for which the IC50 in test [1] is 0.101 to 0.999 µM; in test [2], over 10 µM.

In the case of `Cc1[nH]c(/C=C2\C(=O)Nc3ccc(C(=O)N[C@@H]4CCc5ccccc54)cc32)c(C)c1NC(=O)C(=O)c1ccco1` [Compound 9], the concentration for half-maximal inhibition (IC50) in test [1] and in test [2] was over 10 µM each time.

Turning to `Cc1[nH]c(/C=C2\C(=O)Nc3ccc(C(=O)N[C@@H]4CCc5ccccc54)cc32)c(C)c1NC(=O)C(O)c1ccco1` (stereo partly drawn) [Compound 10], the IC50 is 0.101 to 0.999 µM in test [1] and over 10 µM in test [2].

For `Cc1[nH]c(/C=C2\C(=O)Nc3ccc(C(=O)N[C@H]4CCc5ccccc54)cc32)c(C)c1NC(=O)C(=O)c1ccco1` [Compound 11], the IC50 in test [1] was 1 to 10 µM; in test [2], over 10 µM.

Regarding `Cc1[nH]c(/C=C2\C(=O)Nc3ccc(C(=O)N[C@H]4CCc5ccccc54)cc32)c(C)c1NC(=O)C(O)c1ccco1` (stereo partly drawn) [Compound 12], the IC50 in test [1] is 1 to 10 µM; in test [2], over 10 µM.

For `Cc1[nH]c(CC2C(=O)Nc3ccc(C(=O)N[C@H](C)c4ccc(F)cc4)cc32)c(C)c1NC(=O)[C@H](O)c1ccco1` (stereo partly drawn) [Compound 13], the IC50 in test [1] was 0.101 to 0.999 µM; in test [2], over 10 µM.

For `Cc1[nH]c(/C=C2\C(=O)Nc3ccc(C(=O)N[C@H](C)c4ccccc4)cc32)c(C)c1C(=O)N[C@@H]1CCc2ccccc21` [Compound 16], the values for the IC50 in test [1] and in test [2] were 1 to 10 µM and over 10 µM, respectively.

On to `Cc1[nH]c(/C=C2\C(=O)Nc3ccc(C(=O)N[C@H](C)c4ccccc4)cc32)c(C)c1C(=O)N[C@H]1CCc2ccccc21` [Compound 17], for which the IC50 in test [1] and in test [2] was over 10 µM in each case.

`Cc1[nH]c(/C=C2\C(=O)Nc3ccc(C(=O)N[C@H](C)c4ccccc4)cc32)c(C)c1C(O)C#N` (stereo partly drawn) [Compound 18]: the IC50 is 0.101 to 0.999 µM in test [1] and over 10 µM in test [2].

As to `Cc1[nH]c(/C=C2\C(=O)Nc3ccc(C(=O)N[C@H](C)c4ccc(F)cc4)cc32)c(C)c1C(=O)N[C@@H]1c2ccccc2C[C@H]1O` [Compound 19], the figures for the IC50 in test [1] and in test [2] were 0.101 to 0.999 µM and over 10 µM, respectively.

For the molecule `Cc1[nH]c(/C=C2\C(=O)Nc3ccc(C(=O)N[C@H](C)c4ccccc4)cc32)c(C)c1C(=O)N[C@H]1C(=O)Cc2ccccc21` [Compound 20], the IC50 in test [1] was 0.101 to 0.999 µM; in test [2], over 10 µM.

Consider `Cc1[nH]c(/C=C2\C(=O)Nc3ccc(C(=O)N[C@H](C)c4ccc(F)cc4)cc32)c(C)c1NC(=O)c1ccoc1` [Compound 21], for which the IC50 in test [1] was in the range of 0.001 to 0.1 µM.

In the case of `Cc1[nH]c(/C=C2\C(=O)Nc3ccc(C(=O)N[C@H](C)c4ccc(F)cc4)cc32)c(C)c1NC(=O)C(O)c1ccoc1` (stereo partly drawn) [Compound 22], the results for the IC50 in test [1] and in test [2] were 0.001 to 0.1 µM and 1 to 10 µM, respectively.

As to `COCO[C@@H]1Cc2ccccc2[C@H]1NC(=O)c1c(C)[nH]c(/C=C2\C(=O)Nc3ccc(C(=O)N[C@H](C)c4ccccc4)cc32)c1C` [Compound 23], the IC50 in test [1] and in test [2] was over 10 µM in each case.

For the molecule `Cc1[nH]c(/C=C2\C(=O)Nc3ccc(C(=O)N[C@H](C)c4ccccc4)cc32)c(C)c1C(=O)N[C@@H]1c2ccccc2CC[C@@H]1O` [Compound 24], the figures for the IC50 in test [1] and in test [2] were 0.101 to 0.999 µM and over 10 µM, respectively.

Take `Cc1[nH]c(/C=C2\C(=O)Nc3ccc(C(=O)N[C@H](C)c4ccccc4)cc32)c(C)c1C(=O)N[C@H]1c2ccccc2CC[C@H]1O` [Compound 25]: the IC50 was 0.101 to 0.999 µM in test [1] and over 10 µM in test [2].

On to `Cc1[nH]c(/C=C2\C(=O)Nc3ccc(C(=O)N[C@H](C)c4ccccc4)cc32)c(C)c1C(=O)NC1c2ccccc2OCC1O` (stereo partly drawn) [Compound 26], for which the IC50 is 0.101 to 0.999 µM in test [1] and over 10 µM in test [2].

As for `Cc1[nH]c(/C=C2\C(=O)Nc3ccc(C(=O)N[C@H](C)c4ccccc4)cc32)c(C)c1C(=O)NCC(O)c1ccco1` (stereo partly drawn) [Compound 27], the values for the IC50 in test [1] and in test [2] were 0.001 to 0.1 µM and 1 to 10 µM, respectively.

With `COc1cccc(C(O)C(=O)Nc2c(C)[nH]c(/C=C3\C(=O)Nc4ccc(C(=O)N[C@H](C)c5ccc(F)cc5)cc43)c2C)c1` (stereo partly drawn) [Compound 28], the values for the IC50 in test [1] and in test [2] were 0.101 to 0.999 µM and over 10 µM, respectively.

As to `Cc1[nH]c(/C=C2\C(=O)Nc3ccc(C(=O)N[C@H](C)c4ccccc4)cc32)c(C)c1C(=O)NCc1ccco1` [Compound 29], the IC50 fell in the range of 0.001 to 0.1 µM in test [1] and 1 to 10 µM in test [2].

As for `Cc1[nH]c(/C=C2\C(=O)Nc3ccc(C(=O)N[C@H](C)c4ccccc4)cc32)c(C)c1C(=O)NCC1CCCO1` (stereo partly drawn) [Compound 30], the IC50 in test [1] fell in the range of 0.001 to 0.1 µM; in test [2], 1 to 10 µM.

Take `Cc1[nH]c(/C=C2\C(=O)Nc3ccc(C(=O)N[C@H](C)c4ccccc4)cc32)c(C)c1C(=O)NC(C)c1ccco1` (stereo partly drawn) [Compound 31]: the IC50 in test [1] was in the range of 0.001 to 0.1 µM; in test [2] it was 1 to 10 µM.

For the molecule `Cc1[nH]c(/C=C2\C(=O)Nc3ccc(C(=O)N[C@H](C)c4ccccc4)cc32)c(C)c1C(=O)NCC(O)c1ccoc1` (stereo partly drawn) [Compound 32], the values for the IC50 in test [1] and in test [2] were 0.001 to 0.1 µM and 1 to 10 µM, respectively.

Regarding `Cc1[nH]c(/C=C2\C(=O)Nc3ccc(C(=O)N[C@H](C)c4ccccc4)cc32)c(C)c1C(=O)Nc1nc2ccccc2[nH]1` [Compound 33], the IC50 is 0.101 to 0.999 µM in test [1] and 1 to 10 µM in test [2].

Take `Cc1[nH]c(/C=C2\C(=O)Nc3ccc(C(=O)N[C@H](C)c4ccccc4)cc32)c(C)c1C(=O)N[C@H]1Cc2ccccc2[C@H]1O` [Compound 34]: the IC50 is 0.001 to 0.1 µM in test [1] and 1 to 10 µM in test [2].

Turning to `Cc1[nH]c(/C=C2\C(=O)Nc3ccc(C(=O)N[C@H](C)c4ccccc4)cc32)c(C)c1C(=O)NC[C@H]1CCCO1` [Compound 36], the results for the IC50 in test [1] and in test [2] were 0.001 to 0.1 µM and over 10 µM, respectively.

As for `Cc1[nH]c(/C=C2\C(=O)Nc3ccc(C(=O)N[C@H](C)c4ccccc4)cc32)c(C)c1C(=O)NC[C@@H]1CCCO1` [Compound 37], the results for the IC50 in test [1] and in test [2] were 0.001 to 0.1 µM and 1 to 10 µM, respectively.

For the molecule `Cc1[nH]c(/C=C2\C(=O)Nc3ccc(C(=O)N[C@H](C)c4ccccc4)cc32)c(C)c1C(=O)NCC1CCCCO1` (stereo partly drawn) [Compound 38], the IC50 in test [1] was 0.001 to 0.1 µM; in test [2] it was over 10 µM.

For the molecule `Cc1[nH]c(/C=C2\C(=O)Nc3ccc(C(=O)N[C@H](C)c4ccccc4)cc32)c(C)c1C(=O)NCC1CC(=O)c2ccccc2O1` (stereo partly drawn) [Compound 41], the IC50 in test [1] is 0.001 to 0.1 µM; in test [2], over 10 µM.

Take `Cc1[nH]c(/C=C2\C(=O)Nc3ccc(C(=O)N[C@H](C)c4ccccc4)cc32)c(C)c1C(=O)NC1CCS(=O)(=O)CC1` [Compound 42]: the IC50 is 0.101 to 0.999 µM in test [1] and over 10 µM in test [2].

Consider `Cc1[nH]c(/C=C2\C(=O)Nc3ccc(C(=O)N[C@H](C)c4ccccc4)cc32)c(C)c1C(=O)NC1CCOCC1` [Compound 43], for which the IC50 is 1 to 10 µM in test [1] and over 10 µM in test [2].

For the molecule `Cc1[nH]c(/C=C2\C(=O)Nc3ccc(C(=O)N[C@H](C)c4ccccc4)cc32)c(C)c1C(=O)NCC(O)C1CCOC1` (stereo partly drawn) [Compound 44], the IC50 in test [1] is 0.001 to 0.1 µM; in test [2], over 10 µM.
